How the values were obtained:
[1] = target: T1, Human NTCP (Homo sapiens, UniProt Q14973); experiment: Time course of dissociation (washout), [3H]taurocholate uptake in hNTCP CHO cells; format: cell-based; conditions: 1 μM for 15 min, 6 hours postwashout; read-out: inhibition of human NTCP BA transport activity after washout
T1 construct: expressed in transfected cells; peptide purchased from Pharmaron
T1 sequence (Q14973 1-349): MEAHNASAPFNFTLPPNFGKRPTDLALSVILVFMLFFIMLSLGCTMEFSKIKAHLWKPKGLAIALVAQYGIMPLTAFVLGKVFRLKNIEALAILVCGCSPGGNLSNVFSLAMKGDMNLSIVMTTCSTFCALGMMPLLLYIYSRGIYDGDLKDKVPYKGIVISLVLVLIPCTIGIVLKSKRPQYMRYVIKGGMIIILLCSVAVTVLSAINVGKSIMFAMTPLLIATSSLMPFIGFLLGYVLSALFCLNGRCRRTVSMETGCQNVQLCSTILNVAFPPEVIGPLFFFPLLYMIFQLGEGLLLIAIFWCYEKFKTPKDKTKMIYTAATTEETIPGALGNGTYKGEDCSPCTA
Procedure: This study was performed using a [^3H]taurocholate uptake assay protocol. Stably transfected CHO cells expressing human NTCP (hNTCP) were seeded onto 24 well plates at a density of 1.5-2.0×10^5 cells/well in CHO cell media (DMEM/F12 media supplemented with 10% FBS, Penicillin/Streptomycin) plus Geneticin (G418) to maintain selection in culture. After overnight incubation, the media was replaced, and CHO cells were treated with 10 mM sodium butyrate to induce transporter expression (final concentration=[…]). Twenty-four h later, the media was removed, and cells were washed with warm (37° C.) Hanks balanced salt solution (HBSS) containing sodium (Na+). Cells were then incubated with 1 μM of the test inhibitors or vehicle (DMSO) for 15 min in CHO cell media at 37° C. […]
For the [^3H]taurocholate uptake assay, the media was aspirated at the end of each washout period, and cells were washed three times with warm Hanks balanced salt solution (HBSS) containing sodium (Na+). […] Duplicate 100 μL aliquots of the lysate were transferred to vials with scintillation liquid and counted after neutralization and overnight quenching. Cell-associated protein was measured in duplicate using the BCA protein assay, and cell-associated radioactivity was normalized to protein content.

[2] = target: T2, Mouse NTCP (Mus musculus, UniProt O08705); experiment: 3H-taurocholic acid uptake in mouse NTCP-overexpressing cells; format: cell-based; conditions: 3H-taurocholic acid transport
T2 construct: expressed in transfected cells; kept under geneticin selection
T2 sequence (O08705 1-362): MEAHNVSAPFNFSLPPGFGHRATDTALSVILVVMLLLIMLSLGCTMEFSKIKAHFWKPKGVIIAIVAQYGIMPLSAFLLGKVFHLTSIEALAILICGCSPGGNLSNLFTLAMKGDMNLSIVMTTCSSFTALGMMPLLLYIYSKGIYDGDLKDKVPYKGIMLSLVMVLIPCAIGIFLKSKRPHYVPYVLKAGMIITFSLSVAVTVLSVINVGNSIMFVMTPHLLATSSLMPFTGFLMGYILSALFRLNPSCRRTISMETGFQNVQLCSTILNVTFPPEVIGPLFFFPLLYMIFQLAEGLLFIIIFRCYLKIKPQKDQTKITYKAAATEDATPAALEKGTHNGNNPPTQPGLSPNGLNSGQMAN
Procedure: 20,000 cells (Human & Mouse NTCP-overexpressing cells) were seeded in 96-well plate in 100 μL MEM-alpha medium supplemented with 10% FBS containing geneticin (1 mg/mL) and incubated at 37° C. in 5% CO2 for 24 hrs. After incubation, media was decanted from the wells and cells were washed two times with 250 μL of basal MEM-alpha medium (FBS-free). After each wash, plates were tapped against a paper towel to ensure maximum removal of residual media. For Human NTCP (hNTCP), incubation mix was prepared by adding test inhibitor dilutions (3-fold serial dilution in DMSO, 10 concentrations) in MEM-alpha (without FBS) containing 0.3 μM ^3H-taurocholic acid and 7.5 μM cold taurocholic acid (maintaining 0.2% final DMSO concentration). […]
The plates were tapped against a paper towel after every wash to ensure maximum removal of blocking buffer. 100 μL of MicroScint-20 was added to the wells and kept overnight at room temperature before reading the plates in MicroBeta2 liquid Scintillation Counter from PerkinElmer under 3H Test for I/L-BAT protocol (set at 120 seconds reading time per well, with normal plate orientation).
Percentage inhibitions were calculated with respect to the assay controls. […]

[3] = tested on: NTCP-HepG2 cells; experiment: MTT cytotoxicity assay; format: cell-based, human; conditions: 1 nM-100 μM, HepG2 cells expressing NTCP
Procedure: The In Vitro Toxicology Assay Kit (Sigma-Aldrich) was used to perform a 3-[4,5-dimethylthiazole-2-yl]-2,5-diphenyltetrazolium bromide (MTT) assay to measure the cytotoxicity of the test item according to the manufacturer's protocol. Briefly, NTCP-HepG2 cells were incubated with 100 μL of the indicated concentrations of the test item solved in Hepatocyte Growth Medium (HGM) over 6 h at 37° C. After 6 h, medium was replaced by inhibitor-free HGM and cells were cultured for additional 24 h. Then medium was removed and 100 μL DMEM containing 0.5 mg/mL MTT was added and cells were incubated for 1 h at 37° C. Finally, the medium was replaced by 100 μL isopropyl alcohol (Sigma-Aldrich) and samples were measured by Glo-Max-Multi Detection System (Promega, Madison, Wis., USA). See also Lowjaga K A A, et al. (2020). Long-term trans-inhibition of the hepatitis B and D virus receptor NTCP by taurolithocholic acid. Am J Physiol Gastrointest Liver Physiol 320(1):G66-G80; and Kirstgen et al. 2021.

CCCCC1CN(c2ccccc2)c2cc(SC)c(O/C=C(\F)C(=O)O)cc2S(=O)(=O)N1C (stereo not drawn) [Compound 1, (Z)-3-((3-butyl-2-methyl-7-(methylthio)-1,1-dioxido-5-phenyl-2,3,4,5-tetrahydro-1,2,5-benzothiadiazepin-8-yl)oxy)-2-fluoroacrylic acid]
inhibition at 1 µM [1]: > 50% | IC50 [2]: 1.82 ± 0.25 nM | cytotoxic effects (MTT) [3]: no cytotoxic effects
